Measured values reported in US4540700A, “Treatment of diabetic complications with certain spiro-imidazolidine-diones” (Alcon Laboratories, Inc., priority 1984, dated 1985).

System: cataract formation in galactocemic rats
Experiment: in vivo dose response by intubation (per oral) in galactocemic rats, cataract (vacuole) formation
Design: species or system Charles River CD (Sprague-Dawley derived) male rats
Method: B. In vivo dose response studies were conducted to test the in vivo activity of the following compounds by intubation (per oral) in galactocemic rats on a 30% galactose diet previously described:
Stock suspensions of the test compounds and all dilutions of the compound were formulated with 0.03% by weight Tween 80.
Healthy, Charles River CD (outbred albino, Sprague-Dawley derived) male rats, aged 20-30 days, without observable ocular defects and ranging in weight from 35-45 grams, were acclimated to experimental conditions (in quarantine) for two days prior to beginning the study.
Rats were individually assigned to one of twenty-three groups according to a random number schedule. Two rats, belonging to the same drug-diet treatment group, were housed per cage. Treatment and control groups consisted of six (6) rats each with no replacement in the event of death, and were designated as follows:
Lenses of all eyes were examined with a hand-held ophthalmoscope in the early stages of cataract development and a penlight for the stages, snowflake-like, snowflake, and nuclear cataract. Lens grading occurred every day for the first ten study days, and then every other day until study Day 14.
The relative potency determination was made at 7 drug levels over half log dose intervals. The response (percent cataracts formed and/or the time to cataract formation) was plotted against mg/kg and/or moles/kg.
The study was directed to the suppression and/or elimination of the initial stages of cataract development characterized by vacuoles or snowflake-likeopacities only. It was assumed therefore that suppression and/or elimination of vacuoles or lens opacification by the test drugs affects the transport, absorption and/or metabolism of galactose in such a manner as to prevent subsequent osmotic disturbances normally leading to tissue degeneration and advanced cataract. Advanced cataract defined as stages 2-4 of the Sipple classification was assumed to be of secondary importance to the etiology of cataract inhibition.
In the event where cataract stage other than vacuole formed, such as snowflake-like opacities, this cataract was counted similarly as vacuole in percent cataract formation.
This study yielded this expected effect in the control groups.
All animals were fed Purina Laboratory Chow and water, ad libitum, for the two day acclimation period. All drugs were dosed orally by intubation using an animal feeding needle (Popper and Sons), 18 or 20 gauge, attached to a 1 or 3 ml syringe. Once the dosing time schedule was established, the schedule was followed throughout the study to compensate for any diurnal variation.
The animals were kept on a twelve hour day/night cycle. The temperature and humidity were determined each day at the scheduled dosing time of 1:00 p.m.
The animals were weighed every other day and adjustments to dosage amounts to compensate for weight gain were made each day prior to the dose time. All food was routinely withheld from all animal groups for four hours (9:00 a.m.) prior to the drug dose and restored two hours (3:00 p.m.) post-dose. Otherwise sufficient amounts of chow or diet mixture were maintained in the food hopper to allow the animals to eat ad libitum. There were two days of drug dosage with the animals remaining on Purina Laboratory Chow (Days 1 and 2). The 30% galactose diet mixture was introduced to the animals two hours post-dose on Day 3 which constituted Day 1 of the study.
All eyes were examined with a hand-held ophthalmoscope and/or penlight at the times designated in the Experimental Design section.
It has been found in previous studies that dilation of the eye with a mydriactic (i.e. Mydriacyl) is not necessary for accurate grading, due to the semi-transparent nature of the rat iris. In the early stages (i.e., grades -, ±, and +) the lens was observed by reflecting the ophthalmoscope beam off the retina back through the lens and iris. Using this technique, vacuoles appear as dark, almost opaque patches. […]

O=C1NC(=O)C2(N1)c1cc(F)ccc1-c1ccc(F)cc12 [M, Spiro-[2,7-difluorofluoren-9,4'-imidazolidine]-2',5'-dione]
Percent of Rat Eyes With at Least Vacuoles Formed (0.126 mg/kg p.o., Day 0): 0% | Percent of Rat Eyes With at Least Vacuoles Formed (0.126 mg/kg p.o., Day 1): 0% | Percent of Rat Eyes With at Least Vacuoles Formed (0.126 mg/kg p.o., Day 2): 0% | Percent of Rat Eyes With at Least Vacuoles Formed (0.126 mg/kg p.o., Day 3): 0% | Percent of Rat Eyes With at Least Vacuoles Formed (0.126 mg/kg p.o., Day 4): 0% | Percent of Rat Eyes With at Least Vacuoles Formed (0.126 mg/kg p.o., Day 5): 0% | Percent of Rat Eyes With at Least Vacuoles Formed (0.126 mg/kg p.o., Day 6): 8% | Percent of Rat Eyes With at Least Vacuoles Formed (0.126 mg/kg p.o., Day 7): 25% | Percent of Rat Eyes With at Least Vacuoles Formed (0.126 mg/kg p.o., Day 8): 67% | Percent of Rat Eyes With at Least Vacuoles Formed (0.126 mg/kg p.o., Day 9): 67% | Percent of Rat Eyes With at Least Vacuoles Formed (0.126 mg/kg p.o., Day 10): 67% | Percent of Rat Eyes With at Least Vacuoles Formed (0.126 mg/kg p.o., Day 12): 67% | Percent of Rat Eyes With at Least Vacuoles Formed (0.126 mg/kg p.o., Day 14): 75% | Percent of Rat Eyes With at Least Vacuoles Formed (0.4 mg/kg p.o., Day 0): 0% | Percent of Rat Eyes With at Least Vacuoles Formed (0.4 mg/kg p.o., Day 1): 0% | Percent of Rat Eyes With at Least Vacuoles Formed (0.4 mg/kg p.o., Day 2): 0% | Percent of Rat Eyes With at Least Vacuoles Formed (0.4 mg/kg p.o., Day 3): 0% | Percent of Rat Eyes With at Least Vacuoles Formed (0.4 mg/kg p.o., Day 4): 0% | Percent of Rat Eyes With at Least Vacuoles Formed (0.4 mg/kg p.o., Day 5): 0% | Percent of Rat Eyes With at Least Vacuoles Formed (0.4 mg/kg p.o., Day 6): 0% | Percent of Rat Eyes With at Least Vacuoles Formed (0.4 mg/kg p.o., Day 7): 0% | Percent of Rat Eyes With at Least Vacuoles Formed (0.4 mg/kg p.o., Day 8): 0% | Percent of Rat Eyes With at Least Vacuoles Formed (0.4 mg/kg p.o., Day 9): 0% | Percent of Rat Eyes With at Least Vacuoles Formed (0.4 mg/kg p.o., Day 10): 0% | Percent of Rat Eyes With at Least Vacuoles Formed (0.4 mg/kg p.o., Day 12): 0% | Percent of Rat Eyes With at Least Vacuoles Formed (0.4 mg/kg p.o., Day 14): 0% | Percent of Rat Eyes With at Least Vacuoles Formed (1.26 mg/kg p.o., Day 0): 0% | Percent of Rat Eyes With at Least Vacuoles Formed (1.26 mg/kg p.o., Day 1): 0% | Percent of Rat Eyes With at Least Vacuoles Formed (1.26 mg/kg p.o., Day 2): 0% | Percent of Rat Eyes With at Least Vacuoles Formed (1.26 mg/kg p.o., Day 3): 0% | Percent of Rat Eyes With at Least Vacuoles Formed (1.26 mg/kg p.o., Day 4): 0% | Percent of Rat Eyes With at Least Vacuoles Formed (1.26 mg/kg p.o., Day 5): 0% | Percent of Rat Eyes With at Least Vacuoles Formed (1.26 mg/kg p.o., Day 6): 0.0% | Percent of Rat Eyes With at Least Vacuoles Formed (1.26 mg/kg p.o., Day 6, listed as 2,7-difluoro): 0% | Percent of Rat Eyes With at Least Vacuoles Formed (1.26 mg/kg p.o., Day 7): 0% | Percent of Rat Eyes With at Least Vacuoles Formed (1.26 mg/kg p.o., Day 8): 0% | Percent of Rat Eyes With at Least Vacuoles Formed (1.26 mg/kg p.o., Day 9): 0% | Percent of Rat Eyes With at Least Vacuoles Formed (1.26 mg/kg p.o., Day 10): 0% | Percent of Rat Eyes With at Least Vacuoles Formed (1.26 mg/kg p.o., Day 12): 0% | Percent of Rat Eyes With at Least Vacuoles Formed (1.26 mg/kg p.o., Day 14): 0% | Percent of Rat Eyes With at Least Vacuoles Formed (4.0 mg/kg p.o., Day 0): 0% | Percent of Rat Eyes With at Least Vacuoles Formed (4.0 mg/kg p.o., Day 1): 0% | Percent of Rat Eyes With at Least Vacuoles Formed (4.0 mg/kg p.o., Day 2): 0% | Percent of Rat Eyes With at Least Vacuoles Formed (4.0 mg/kg p.o., Day 3): 0% | Percent of Rat Eyes With at Least Vacuoles Formed (4.0 mg/kg p.o., Day 4): 0% | Percent of Rat Eyes With at Least Vacuoles Formed (4.0 mg/kg p.o., Day 5): 0% | Percent of Rat Eyes With at Least Vacuoles Formed (4.0 mg/kg p.o., Day 6): 0.0% | Percent of Rat Eyes With at Least Vacuoles Formed (4.0 mg/kg p.o., Day 6, listed as 2,7-difluoro): 0% | Percent of Rat Eyes With at Least Vacuoles Formed (4.0 mg/kg p.o., Day 7): 0.0% | Percent of Rat Eyes With at Least Vacuoles Formed (4.0 mg/kg p.o., Day 7, listed as 2,7-difluoro): 0% | Percent of Rat Eyes With at Least Vacuoles Formed (4.0 mg/kg p.o., Day 8): 0.0% | Percent of Rat Eyes With at Least Vacuoles Formed (4.0 mg/kg p.o., Day 8, listed as 2,7-difluoro): 0%
